Measured values published in patent publication US20240174637A1, “DEGRADERS OF GRK2 AND USES THEREOF” (Sonata Therapeutics, Inc., priority 2021, published 2024).
Where two headings read alike, the source gives them in different places.

Assays:
Type in all cases: cell-based
PAXF1657 EV = test: 7-day cellular proliferation assay (CellTiter-Glo), PAXF1657 EV
Method: (§1) In order to identify compounds specific for GRK2, we generated two isogenic cell line pairs of the pancreatic cancer cell line PAXF1657, a pair of cells stably overexpressing GRK2 cDNA or the control empty vector and a cell line pair of PAXF1657 GRK2 knockout clonal cells versus non-targeting control clonal cells.
(§2) Proliferation Assay: Cellular anti-proliferative activity of compounds was assessed by using the pancreatic cancer cell line, PAXF1657, stably overexpressing GRK2 cDNA or the control empty vector, as well as the parental urinary bladder cancer cell line, 5637. In addition, we also took advantage of GRK2 knockout cell lines that were generated via CRISPR. Cell lines were seeded into tissue culture treated, white-walled, 96-well plates at a density of 500 cells/well in RPMI1640 media supplemented with 10% H.I. FBS and penicillin/streptomycin. Plates were incubated overnight at 37° C., 5% CO2 to allow cells to adhere to the wells. GRK2 inhibitors were added to the cells using a 10-point dilution series with a final concentration ranging from 30 μM-0.0002 μM in 0.3% DMSO. At the time of compound addition, a set of plates, that were not treated with compounds, were collected and cell viability was measured using CellTiter-Glo (Promega). CellTiter-Glo reagent was added to the designed plates and luminescence was measuring using a Biotek Synergy plate reader. The compound treated cells were incubated for 3 days at 37° C., 5% CO2. The media was then aspirated from each well and replaced with fresh media containing GRK2 inhibitors. The compound treated cells were then incubated for an additional 4 days at 37° C., 5% CO2. Cell viability was assessed and at end of the 7-day compound treatment by CellTiterGlo.

PAXF1657 KO Clone #4 = test: 7-day cellular proliferation assay (CellTiter-Glo), PAXF1657 KO Clone #4
Method: as §1, §2

GRK2 = biological target: T1, GRK2 (Homo sapiens, UniProt P25098); test: GRK2 Degradation Assay and Western Blot in PAXF1657 cells; parameters: endogenous in cells; host or cells: PAXF1657
T1 sequence (P25098 1-689): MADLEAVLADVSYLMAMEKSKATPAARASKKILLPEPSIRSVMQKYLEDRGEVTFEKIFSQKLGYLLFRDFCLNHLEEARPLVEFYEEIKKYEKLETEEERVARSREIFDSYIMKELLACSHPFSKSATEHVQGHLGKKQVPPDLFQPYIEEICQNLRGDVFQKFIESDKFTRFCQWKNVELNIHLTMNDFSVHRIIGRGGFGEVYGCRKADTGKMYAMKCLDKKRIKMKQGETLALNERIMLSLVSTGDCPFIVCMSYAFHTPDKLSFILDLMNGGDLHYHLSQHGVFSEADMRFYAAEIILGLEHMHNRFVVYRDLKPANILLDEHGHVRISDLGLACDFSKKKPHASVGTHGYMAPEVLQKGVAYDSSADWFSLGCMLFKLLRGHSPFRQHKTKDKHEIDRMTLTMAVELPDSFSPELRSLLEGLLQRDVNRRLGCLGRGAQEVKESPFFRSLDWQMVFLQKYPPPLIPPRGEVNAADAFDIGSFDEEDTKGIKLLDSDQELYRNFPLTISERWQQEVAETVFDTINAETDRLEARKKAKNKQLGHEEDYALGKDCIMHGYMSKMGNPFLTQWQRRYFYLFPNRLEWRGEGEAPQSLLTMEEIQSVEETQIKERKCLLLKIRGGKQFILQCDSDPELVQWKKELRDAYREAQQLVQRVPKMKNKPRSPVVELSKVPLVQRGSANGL
Method: General Protocol: Degradation Assay and Western Blot. PAXF1657 cells were plated in 6-well, 24-well plates or 60 mm tissue culture treated dishes and incubated at 37° C. until 70% confluency. The media was aspirated, and the cells were treated with fresh media containing the compounds in the concentration range of 0 μM to 10 μM for a period of 6 to 24 hours. At the desired time points the cells were washed twice with cold PBS and lysed with lysis buffer (ice cold PBS+1% NP40 with 1/100 protease/phosphatase inhibitors) on ice for 8 mins followed by sonication at 70% intensity pulses for 10 seconds. The cells were centrifuged at 20000 g for 8 min at 4° C. The supernatants were collected and stored at −80° C.
Samples were mixed with NuPAGE LDS sample buffer and NuPAGE sample reducing buffer (3×), vortexed and heated at 95° C. for 10 min, and then analyzed by SDS-PAGE (NuPAGE 4-12%) followed by transfer to nitrocellulose membrane. […] The membranes were washed three times with TBST and incubated with GRK2 or R-actin antibodies in 5% milk in TBST at 4° C. overnight. The membranes were washed three times with TBST and incubated with anti-mouse IgG-HRP or anti-rabbit IgG-HRP at room temperature for 2 hours in 5% milk in TBST. The membranes were washed three times with TBST and developed with ECL Dura, ECL femto or ECL atto substrates.

[1] = 168 h, 7-day, read-out: 7-day proliferation assay: IC50 GeoMean (uM) [Cell Line: PAXF1657 EV]
[2] = 168 h, 7-day, read-out: 7-day proliferation assay: IC50 GeoMean (uM) [Cell Line: PAXF1657 KO Clone #4]
[3] = 0.3 uM, PAXF1657 EV, 24 hrs, read-out: % GRK2 degradation at 0.3 uM in PAXF1657 EV (24 hrs)
[4] = 1 uM, PAXF1657 EV, 24 hrs, read-out: % GRK2 degradation at 1 uM in PAXF1657 EV (24 hrs)
[5] = 3 uM, PAXF1657 EV, 24 hrs, read-out: % GRK2 degradation at 3 uM in PAXF1657 EV (24 hrs)
[6] = proliferation, read-out: GeoMean IC50 (UM) PAXF1657 EV
[7] = proliferation, read-out: GeoMean IC50 (uM) PAXF1657 KO Clone #4
[8] = Conc 0.3 uM, read-out: Degradation Assay - 3 point: Degradation (%)
[9] = Conc 1 uM, read-out: Degradation Assay - 3 point: Degradation (%)
[10] = Conc 3 uM, read-out: Degradation Assay - 3 point: Degradation (%)

Row | SMILES | inhibition at 0.3 µM (GRK2; [3]) [%] | inhibition at 1 µM (GRK2; [4]) [%] | inhibition at 3 µM (GRK2; [5]) [%] | inhibition at 0.3 µM (GRK2; [8]) [%] | inhibition at 1 µM (GRK2; [9]) [%] | inhibition at 3 µM (GRK2; [10]) [%] | IC50 (PAXF1657 EV; [1]) [µM] | IC50 (PAXF1657 KO Clone #4; [2]) [µM] | IC50 (PAXF1657 EV; [6]) [µM] | IC50 (PAXF1657 KO Clone #4; [7]) [µM]
1 | Cn1c(CNc2cccc(C(=O)NCc3cccc(OCCCCCn4cc(CCCCC(=O)Nc5cccc6c5CN(C5CCC(=O)NC5=O)C6=O)nn4)c3)c2)nnc1-c1ccncn1 (centres unmarked) [Compound D58] | 7 | 41 | 68 | – | – | – | 1 to 10 | > 10 | – | –
2 | Cn1c(CNc2cccc(C(=O)NCc3cccc(OCCCCCCCn4cc(CCCC(=O)Nc5cccc6c5CN(C5CCC(=O)NC5=O)C6=O)nn4)c3)c2)nnc1-c1ccncn1 (centres unmarked) [Compound D61] | 28 | 55 | 52 | – | – | – | > 10 | > 10 | – | –
3 | Cn1c(CNc2cccc(C(=O)N[C@H]3CCOc4ccc(OCCCCCOCCCOCC(=O)Nc5cccc6c5CN(C5CCC(=O)NC5=O)C6=O)cc43)c2)nnc1-c1ccncn1 (stereo partly drawn) [Compound D155, N-((4S)-6-(5-(3-(2-(2-(2,6-dioxopiperidin-3-yl)-1-oxoisoindolin-4-ylamino)-2-oxoethoxy)propoxy)pentyloxy)chroman-4-yl)-3-((4-methyl-5-(pyrimidin-4-yl)-4H-1,2,4-triazol-3-yl)methylamino)benzamide] | – | – | – | 61.9 | 58.1 | -21.9 | – | – | > 30 | > 30
4 | Cn1c(CNc2cccc(C(=O)N[C@H]3CCOc4ccc(OCCCCCCOCCOCCOCCCCCC(=O)Nc5cccc6c5CN(C5CCC(=O)NC5=O)C6=O)cc43)c2)nnc1-c1ccncn1 (stereo partly drawn) [Compound D156, N-((4S)-6-(6-(2-(2-(6-(2-(2,6-dioxopiperidin-3-yl)-1-oxoisoindolin-4-ylamino)-6-oxohexyloxy)ethoxy)ethoxy)hexyloxy)chroman-4-yl)-3-((4-methyl-5-(pyrimidin-4-yl)-4H-1,2,4-triazol-3-yl)methylamino)benzamide] | – | – | – | -8.15 | 2.96 | 11.5 | – | – | 2.15 | > 30
5 | Cn1c(CNc2cccc(C(=O)N[C@@H]3CCOc4ccc(OCCCCCOCCCOCC(=O)Nc5cccc6c5CN(C5CCC(=O)NC5=O)C6=O)cc43)c2)nnc1-c1ccncn1 (stereo partly drawn) [Compound D192, N-((4R)-6-(5-(3-(2-(2-(2,6-dioxopiperidin-3-yl)-1-oxoisoindolin-4-ylamino)-2-oxoethoxy)propoxy)pentyloxy)chroman-4-yl)-3-((4-methyl-5-(pyrimidin-4-yl)-4H-1,2,4-triazol-3-yl)methylamino)benzamide] | – | – | – | 13.5 | 37.4 | 56.2 | – | – | – | –
6 | C[C@H](NC(=O)c1cccc(NCc2nnc(-c3ccncn3)n2C)c1)c1cccc(OCCCCCCOCCOCC(=O)Nc2cccc3c2CN(C2CCC(=O)NC2=O)C3=O)c1 (stereo partly drawn) [Compound D193, N-((1S)-1-(3-((6-(2-(2-((2-(2,6-dioxopiperidin-3-yl)-1-oxoisoindolin-4-yl)amino)-2-oxoethoxy)ethoxy)hexyl)oxy)phenyl)ethyl)-3-(((4-methyl-5-(pyrimidin-4-yl)-4H-1,2,4-triazol-3-yl)methyl)amino)benzamide] | – | – | – | 19.3 | 16.7 | 29.6 | – | – | – | –
7 | C[C@@H](NC(=O)c1cccc(NCc2nnc(-c3ccncn3)n2C)c1)c1cccc(OCCCCCOCCCOCC(=O)Nc2cccc3c2CN(C2CCC(=O)N(C)C2=O)C3=O)c1 (stereo partly drawn) [Compound D194, N-((1R)-1-(3-((5-(3-(2-((2-(1-methyl-2,6-dioxopiperidin-3-yl)-1-oxoisoindolin-4-yl)amino)-2-oxoethoxy)propoxy)pentyl)oxy)phenyl)ethyl)-3-(((4-methyl-5-(pyrimidin-4-yl)-4H-1,2,4-triazol-3-yl)methyl)amino)benzamide] | – | – | – | 25 | 15 | 0 | – | – | – | –

Second part, led by results:

Row | inhibition at 0.3 µM (GRK2; [3]) [%] | inhibition at 1 µM (GRK2; [4]) [%] | inhibition at 3 µM (GRK2; [5]) [%] | inhibition at 0.3 µM (GRK2; [8]) [%] | inhibition at 1 µM (GRK2; [9]) [%] | inhibition at 3 µM (GRK2; [10]) [%] | SMILES | IC50 (PAXF1657 EV; [1]) [µM] | IC50 (PAXF1657 KO Clone #4; [2]) [µM] | IC50 (PAXF1657 EV; [6]) [µM] | IC50 (PAXF1657 KO Clone #4; [7]) [µM]
8 | -3 | 1 | 5 | – | – | – | Cc1ncsc1-c1ccc(CNC(=O)[C@@H]2C[C@@H](O)CN2C(=O)[C@@H](NC(=O)CCCc2cn(CCCCCOc3cccc(CNC(=O)c4cccc(NCc5nnc(-c6ccncn6)n5C)c4)c3)nn2)C(C)(C)C)cc1 [Compound D81] | > 10 | > 10 | – | –
9 | – | 19 | 20 | – | – | – | Cn1c(CNc2cccc(C(=O)NCc3cccc(OCCOCCOCCOCCC(=O)Nc4cccc5c4CN(C4CCC(=O)NC4=O)C5=O)c3)c2)nnc1-c1ccncn1 (centres unmarked) [Compound D107] | > 10 | > 10 | – | –
10 | – | -6 | 0 | – | – | – | Cn1c(CNc2cccc(C(=O)NCc3cccc(OCCCCCC(=O)NCCOCCOCCOCCC(=O)Nc4cccc5c4CN(C4CCC(=O)NC4=O)C5=O)c3)c2)nnc1-c1ccncn1 (centres unmarked) [Compound D113] | > 10 | > 10 | – | –
11 | – | 32 | 15 | – | – | – | Cn1c(CNc2cccc(C(=O)NCc3cccc(OCCCCCCC(=O)NCCOCCOCCOCCC(=O)Nc4cccc5c4CN(C4CCC(=O)NC4=O)C5=O)c3)c2)nnc1-c1ccncn1 (centres unmarked) [Compound D114] | > 10 | > 10 | – | –
12 | – | -14 | -2 | – | – | – | Cc1ncsc1-c1ccc(CNC(=O)[C@@H]2C[C@@H](O)CN2C(=O)[C@@H](NC(=O)CCOCCOCCOCCNC(=O)CCCCOc2cccc(CNC(=O)c3cccc(NCc4nnc(-c5ccncn5)n4C)c3)c2)C(C)(C)C)cc1 [Compound D115] | > 10 | 1 to 10 | – | –
13 | – | – | – | 1.96 | 17.7 | 20.6 | Cc1ncsc1-c1ccc(CNC(=O)[C@@H]2C[C@@H](O)CN2C(=O)[C@@H](NC(=O)COCCCOCCCCCOc2cccc([C@H](C)NC(=O)c3cccc(NCc4nnc(-c5ccncn5)n4C)c3)c2)C(C)(C)C)cc1 [Compound D184, (2S,4R)-1-((S)-3,3-dimethyl-2-(2-(3-((5-(3-((S)-1-(3-(((4-methyl-5-(pyrimidin-4-yl)-4H-1,2,4-triazol-3-yl)methyl)amino)benzamido)ethyl)phenoxy)pentyl)oxy)propoxy)acetamido)butanoyl)-4-hydroxy-N-(4-(4-methylthiazol-5-yl)benzyl)pyrrolidine-2-carboxamide] | – | – | – | –
